Experimental data from US8207188B2, “Treatment of diseases modulated by a H4 receptor agonist” (priority 2006, dated 2012).
Entries after “also recorded” stand apart in the source; their conditions may differ.

Tests used:
[1] = test system: Colony Forming Cells (CFC, mouse medullary cells C57B1/6) expressing H4R; assay: Cell cycle analysis of haematopoietic progenitor cells (propidium iodide, FACS); assay type: cell-based; settings: 10 μM
Protocol: Haematopoietic progenitor cells were incubated for 1-3 day(s) with a cocktail of growth factors (IL-3, 10 ng/ml, IL-6 10 ng/ml), […] (50 ng/ml) in the culture medium StemSpan® (without serum) in the presence and absence of TRQ and H4R antagonist (JNJ7777120, Sigma Aldrich).
Cells were later stained with propidium iodide (PI) for the analysis of the cell cycle according to the following protocol:
2×10^6 cells/ml were labelled with CD1 17-FITC for 20 min in PBS, then washed in PBS and stained with PBS 1% formaldehyde, without methanol, at 4° C. for 5 min and again washed in PBS.
The cells were then lysed with 1 ml of PVTritonX100 and RNAse without DNAse (0.2 mcg/ml), PI (20 mcg/ml), and incubated in PBS for 30 min at ambient temperature.
The lysed cells were analyzed with FACS scan (FL2-area IFL2-width) for cell cycle analysis and FL1 for labelling of cell Surface.
10^6 cells enriched in haematopoietic stem cells were incubated in 2 ml of CFSE […] in PBS 10 min, 37° C. The reaction was stopped by the addition of cold PBS in excess (5×) and centrifuged for 5 min at 1700 rpm.
Cells were resuspended in the culture medium StemSpan® (without serum) and stimulated with the growth Factor cocktail, and analyze in FACs scan (FL1) after 72 hours incubation.

[2] = test system: Mouse medullary cells C57B1/6 expressing H4R; assay: Proliferation of Colony Forming Cells (CFC) in semi-solid media; assay type: cell-based; settings: 7 days; for inhibitory activity of cell proliferation (CFC): Example 20
Protocol: Using the assay described in Example 15, above, the effect of TRQ or CB on cells expressing H4R was tested. Mouse medullary cells C57B1/6 expressing H4R (50,000 cells/Petri dish) were incubated in a semi-solid media with haematopoietic growth factors (IL-3: 10 ng/ml) for 7 days with TRQ or CB.
Using the assay described in Example 15, above, the effect of TRQ or CB on cells expressing H4R was tested. Mouse medullary cells C57B1/6 expressing H4R (50,000 cells/Petri dish) were incubated in a semi-solid media with haematopoietic growth factors (IL-3: 10 ng/ml) for 7 days with a TRQ (racemic mixture of RR and SS isomers at 1 μM and 10 μM concentration); TRQ isomer E1 (10 μM concentration); TRQ isomer E2 (10 μM concentration) and CB (10 μM concentration).

[3] = test system: Mouse C57B1/6 Haematopoietic stem cells; assay: G0/G1 cell cycle of sorted haematopoietic stem cells, 2 h incubation (Example 17); assay type: cell-based; settings: 2 hours incubation with growth factors
Protocol: Mouse C57B1/6 Haematopoietic stem cells were enriched with bone marrow cells by magnetic sorting. Only cells expressing surface tyrosine kinase were sorted. Cells were incubated for 2 hours with growth factors (IL-3 10 ng/ml, IL-6 10 ng/ml, SCF 50 ng/ml) and TRQ and its enantiomers, E1 and E2.
After 2 hours of incubation, cells were washed and incubated with […] for 30 minutes read by FACS scan.

[4] = test system: Mouse medullary cells C57B1/6 expressing H4R; assay: Percentage of cells at G0/G1 phase, TRQ racemate and enantiomers with and without CB (Example 21); assay type: cell-based
Protocol: This experiment was conducted at two concentrations for all TRQ molecules (10 μM and 1 μM) in the presence and absence of CB (10 μM).
Using the assay described in Example 15, above, the effect of TRQ or CB on cells expressing H4R was tested. Mouse medullary cells C57B1/6 expressing H4R (50,000 cells/Petri dish) were incubated in a semi-solid media with haematopoietic growth factors such as IL-3 (10 ng/ml) for 7 days with a TRQ (racemic mixture of RR and SS isomers at 1 μM and 10 μM concentration); purified TRQ isomer E1 (10 μM and 1 μM concentration); purified TRQ isomer E2 (10 μM and 1 μM concentration) and CB (10 μM concentration). […] Similar results were shown with the purified TRQ isomers. In each experiment cells were incubated in the presence of growth factors (GF, FIG. 15).

[5] = biological target: T1, Organic Cation Transporter-3 (OCT-3) (Mus musculus, UniProt Q9WTW5); assay: Histamine uptake by bone marrow cells; assay type: cell-based, murine
T1 construct: from tissue; host or cells: total bone marrow cells
T1 sequence (Q9WTW5 1-551): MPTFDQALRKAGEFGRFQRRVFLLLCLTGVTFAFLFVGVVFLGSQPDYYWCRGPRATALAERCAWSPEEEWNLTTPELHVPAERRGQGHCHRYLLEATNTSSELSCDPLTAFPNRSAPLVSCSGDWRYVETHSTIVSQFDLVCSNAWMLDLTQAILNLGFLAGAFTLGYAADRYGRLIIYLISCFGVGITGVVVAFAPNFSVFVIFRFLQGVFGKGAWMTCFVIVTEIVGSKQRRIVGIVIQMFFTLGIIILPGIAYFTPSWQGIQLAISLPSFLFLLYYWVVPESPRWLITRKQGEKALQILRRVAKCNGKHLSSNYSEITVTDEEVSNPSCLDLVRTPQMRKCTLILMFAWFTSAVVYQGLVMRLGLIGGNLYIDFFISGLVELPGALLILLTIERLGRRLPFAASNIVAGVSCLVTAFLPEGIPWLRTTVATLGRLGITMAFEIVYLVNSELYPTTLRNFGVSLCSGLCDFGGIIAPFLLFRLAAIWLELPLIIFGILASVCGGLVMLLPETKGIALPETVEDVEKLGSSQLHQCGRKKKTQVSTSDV
Protocol: Cell cultures. Bone marrow (BM) cells were prepared as reported (Schneider, et al. J. Immunol. 139:3710-717) and adjusted to a final concentration of 2.5×10^6 per ml in culture medium (MEM) supplemented with 10% horse serum. Various doses (10^−5-10^−7 M) of Clobenpropit or Tritoqualine were added shortly before the addition of IL-3 (1 ng/ml), followed by a 24-h incubation at 37° C., 5% CO2.
Cytokine assays, measurement of histamine production, and uptake. IL-6 and IL-4 production was measured in cell supernatants recovered after a 24-h incubation. Histamine was quantified by an automated continuous flow spectrofluorometric technique (Schneider, et al. J. Immunol. 139:3710-717). For binding experiments, 10^6 total BM cells were plated in round-bottomed 96-well polypropylene plates (Costar). Unless stated otherwise, the cells were incubated (37° C., 5% CO2) for 3 h with 3 μCi/ml of [^3H]histamine dihydrochloride (2.5×10^−7 M; 12 Ci/mmol) in a final volume of 100 μl. Competition assays were performed as previously described (Corbel, S., et al. 1995. Blood. 86:531-539; Corbel, S., et al. 1995, FEBS Lett. 404:289-293). Each experiment was performed in triplicate, and histamine binding was calculated from total cpm after subtraction of nonspecific binding to filters.

[6] = biological target: T2, Serotonin Transporter (SERT) (Mus musculus, UniProt Q60857); assay: Serotonin uptake by bone marrow cells; assay type: cell-based, murine
T2 construct: from tissue; host or cells: total bone marrow cells

[7] = 10 μM, compared to control (GF only)

T2 sequence (Q60857 whole entry): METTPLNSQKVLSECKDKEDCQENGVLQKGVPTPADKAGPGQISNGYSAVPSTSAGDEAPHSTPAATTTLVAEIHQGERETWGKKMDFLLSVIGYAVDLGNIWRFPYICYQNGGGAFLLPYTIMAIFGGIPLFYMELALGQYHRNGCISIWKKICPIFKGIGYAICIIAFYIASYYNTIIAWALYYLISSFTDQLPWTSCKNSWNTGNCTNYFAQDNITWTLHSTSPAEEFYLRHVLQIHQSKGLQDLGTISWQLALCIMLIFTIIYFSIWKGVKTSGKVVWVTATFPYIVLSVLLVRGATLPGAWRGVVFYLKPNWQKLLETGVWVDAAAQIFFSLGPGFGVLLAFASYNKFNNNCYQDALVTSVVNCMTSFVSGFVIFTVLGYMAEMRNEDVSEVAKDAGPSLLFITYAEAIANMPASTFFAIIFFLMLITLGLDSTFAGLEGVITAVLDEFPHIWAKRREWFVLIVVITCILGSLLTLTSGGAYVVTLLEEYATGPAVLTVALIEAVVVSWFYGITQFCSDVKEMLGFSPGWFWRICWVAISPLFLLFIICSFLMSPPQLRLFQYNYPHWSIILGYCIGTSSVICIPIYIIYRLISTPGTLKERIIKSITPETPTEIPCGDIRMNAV

Row | Structure (SMILES) | haematopoietic progenitor cells blocked (G0/G1) [1] | inhibitory activity of cell proliferation (CFC) ([2]; 10 μM) | inhibition of G0/G1 phase [3] | percentage of cells at the G0/G1 phase / inhibitory activity of cell proliferation ([4]; 1 μM) | percentage of cells at the G0/G1 phase / inhibitory activity of cell proliferation [4, 7] | inhibition of histamine uptake ([5]; 1 μM) | inhibition of histamine uptake ([5]; 10 μM) | inhibition of serotonin uptake ([6]; 1 μM) | inhibition of serotonin uptake ([6]; 10 μM) | inhibition of proliferation of CFC ([2]; Example 16, 10 μM, IL-3 10 ng/ml, listed as TRQ) | inhibitory activity of cell proliferation (CFC) ([2]; 1 μM) | percentage of cells at the G0/G1 phase / inhibitory activity of cell proliferation ([4]; 1 μM, listed as TRQ) | percentage of cells at the G0/G1 phase / inhibitory activity of cell proliferation ([4]; 1 μM, listed as racemic TRQ) | effect on biogenic monoamine uptake by OCT-3 ([5]; listed as TRQ) | effect on biogenic monoamine uptake by SERT ([6]; listed as TRQ)
1 | CCOc1c(N)c2c(c(OCC)c1OCC)[C@@H]([C@@H]1c3c(cc4c(c3OC)OCO4)CCN1C)OC2=O [E2] | Approximately 60% | exerted inhibitory activity of cell proliferation | 57% | higher percentage of cells at the G0/G1 phase than the racemic TRQ | exerted inhibitory activity of cell proliferation | negligible | greatly reduced | negligible | greatly reduced |  |  |  |  |  | 
2 | CCOc1c(N)c2c(c(OCC)c1OCC)C(C1c3c(cc4c(c3OC)OCO4)CCN1C)OC2=O (racemic) [Tritoqualine, 7-Amino-4,5,6-triethoxy-3-(5,6,7,8-tetrahydro-4-methoxy-6-methyl-1,3-dioxolo[4,5-g]isoquinolin-5-yl) phthalide] |  |  | approximately 50% |  | also increased the percentage of cells at the G0/G1 phase |  |  |  |  | more potent inhibitor of cell proliferation than the Clobenpropit | less inhibitory activity in comparison to 10 μM CB | also increased the percentage of cells at the G0/G1 phase | less inhibitory activity in comparison to 10 μM CB | do not significantly alter; also recorded: does not affect | do not significantly alter; also recorded: does not affect
3 | CCOc1c(N)c2c(c(OCC)c1OCC)[C@H]([C@H]1c3c(cc4c(c3OC)OCO4)CCN1C)OC2=O [E1] | Approximately 48% | slightly more potent than isomer E2 | approximately 50% | higher percentage of cells at the G0/G1 phase than the racemic TRQ | slightly more potent than isomer E2 | negligible | greatly reduced | negligible | greatly reduced |  |  |  |  |  | 
